In US6124351A, “Amino acid derivatives having a nitric oxide synthase inhibiting action” (priority 1994, dated 2000):
“Also recorded” adds a separate entry of the source. Counter-ions that a name gives are not always drawn. Like-named read-outs stand apart in the source and are kept apart here.

How the values were obtained:
E-cNOS = target: T1, E-cNOS (Bos taurus, UniProt P29473); assay: Inhibition of E-cNOS, homogenate of cow pulmonary arterial endothelium cell (CPAE); conversion of L-[3H] arginine to L-[3H] citrulline; assay type: biochemical
T1 construct: the mixture was homogenized for 3 min to yield the crude enzyme sample of E-cNOS; endogenous in cells; host or cells: CPAE (cow pulmonary arterial endothelium cells), whole homogenate
Experimental: (§1) Compounds of the invention were evaluated for their inhibitory effect against NOS isoforms in comparison with the well known NOS inhibitors. The following were used as crude enzyme fractions of the respective NOS isoforms: a soluble fraction of the rat cerebral cortex for N-cNOS and a homogenate of cow pulmonary arterial endothelium cell (CPAE) for E-cNOS, whereas for iNOS, rats were administered lipopolysaccharide (LPS, 10 mg/kg, i.p.) and lungs were removed 6 h later to prepare soluble fractions.
The crude enzyme sample of E-cNOS was prepared by the following procedure. A cow pulmonary arterial endothelium cell (CPAE) was cultured in a MEM medium containing 20% of FBS. Several days later, the cells were detached from the flask using a solution of 0.25% trypsin containing 1 mM EDTA and after addition of 0.1 M phosphate-buffered saline (PBS; pH 7.4) diluted with physiological saline, centrifugation was conducted at 1,000 rpm for 5 min. The supernate was then discarded and upon addition of a suitable amount of PBS, centrifugation was performed at 1,000 rpm for 5 min to wash the cells. The same procedure was repeated using 50 mM Tris-HCl containing 1 mM DTT (pH 7.4) to wash the cells. The precipitating cells were added an adequate amount of 50 mM Tris-HCl containing 1 mM DTT (pH 7.4) and the mixture was homogenized for 3 min to yield the crude enzyme sample of E-cNOS.
(§2) The reaction was started by addition of L-[^3 H] arginine and following incubation at 37° C. for 10 min, the reaction was terminated by addition of 2 ml of 50 mM Tris-HCl (pH 5.5) containing 1 mM EDTA and placing the mixture on ice. The reaction solution was passed through a cation-exchange resin column (Dowex AG50WX-8, Na^+ form, 3.2 ml) to separate the reaction product L-[^3 H] citrulline from the unreacted residual substrate L-[^3 H] arginine. The elute was combined with another elute resulting from the passage of distilled water (3 ml) through the column and put into a mini vial for recovery of L-[^3 H] citrulline. Thereafter, 5 ml of a scintillation fluid was added and the contained radioactivity was measured with a liquid scintillation counter to determine the amount of L-[^3 H] citrulline. The protein concentration of each crude enzyme sample was determined with a micro-assay kit of Biorad Co.
(§3) All data in Table 4 are expressed by mean ± standard error, with the number of cases indicated within parentheses.

N-cNOS = target: T2, N-cNOS (Rattus norvegicus, UniProt P29476); assay: biochemical; settings: for IC50: N-cNOS, rat cerebral cortex, 100 μM L-[3H] arginine, 37° C., 10 min, pH 7.4, mean ± standard error
T2 construct: a soluble cytosolic fraction of the finally obtained supernate was used as the crude enzyme sample of N-cNOS; from tissue; host or cells: cerebral cortex of normal untreated male SD rats, 100,000×g soluble cytosolic fraction

iNOS [1] = target: T3, iNOS (Rattus norvegicus, UniProt Q06518); assay: Inhibition of iNOS, soluble fraction of lungs of LPS-treated rats; conversion of L-[3H] arginine to L-[3H] citrulline; assay type: biochemical
T3 construct: a soluble cytosolic fraction of the finally obtained supernate was used as the crude enzyme sample of iNOS; from tissue; host or cells: lungs of LPS-treated rats, 100,000×g soluble cytosolic fraction
Experimental: as §1
The crude enzyme sample of iNOS was prepared by the following procedure. Rats were administered intraperitoneally with LPS (10 mg/kg) and, 6 h later, perfused in a transcardiac manner with physiological saline containing 10 U/ml of heparin; thereafter, lungs were removed. Subsequently, 5 volumes of 50 mM Tris-HCl containing 1 mM DTT (pH 7.4) was added and the mixture was homogenized for 3 min, followed by centrifugation of the homogenate at 1,000×g for 10 min. The resulting supernate was centrifuged at 100,000×g for 60 min and a soluble cytosolic fraction of the finally obtained supernate was used as the crude enzyme sample of iNOS.
The method of measuring NOS activity was basically the same as already reported by the present inventors and consisted of determining quantitatively the conversion of a substrate L-[^3 H] arginine to a reaction product L-[^3 H] citrulline [Nagafuji et al., in Brain Edema IX (Ito et al. eds.) 60, pp. 285-288, 1994, Acta Neurochir., Springer-Verlag].
The reaction solution consisted of 100 μM L-[^3 H] arginine, a prepared NOS enzyme (6-20 μg/ml protein), 1.25 mM CaCl2, 1 mM EDTA, 10 μg/ml calmodulin, 1 mM NADPH, 100 μM tetrahydrobiopterine, 10 μM FAD, 10 μM FMN and 50 mM Tris-HCl (pH 7.4), to which one of the compounds of the invention or one of the control compounds was added.
as §2, §3

iNOS [2] = settings: cited from earlier work
[3] = E-cNOS, CPAE homogenate, 100 μM L-[3H] arginine, 37° C., 10 min, pH 7.4, mean ± standard error
[4] = index of selectivity, N-cNOS vs E-cNOS
[5] = index of selectivity, N-cNOS vs iNOS
[6] = iNOS, LPS rat lung, 100 μM L-[3H] arginine, 37° C., 10 min, pH 7.4, mean ± standard error
[7] = read-out: IC50 value iNOS (the concentration necessary to inhibit 50% activity), iNOS, LPS rat lung, 100 μM L-[3H] arginine, 37° C., 10 min, pH 7.4, mean ± standard error
[8] = compared with existing NOS inhibitors, dihydrochloride

T1 sequence (P29473 2-1205): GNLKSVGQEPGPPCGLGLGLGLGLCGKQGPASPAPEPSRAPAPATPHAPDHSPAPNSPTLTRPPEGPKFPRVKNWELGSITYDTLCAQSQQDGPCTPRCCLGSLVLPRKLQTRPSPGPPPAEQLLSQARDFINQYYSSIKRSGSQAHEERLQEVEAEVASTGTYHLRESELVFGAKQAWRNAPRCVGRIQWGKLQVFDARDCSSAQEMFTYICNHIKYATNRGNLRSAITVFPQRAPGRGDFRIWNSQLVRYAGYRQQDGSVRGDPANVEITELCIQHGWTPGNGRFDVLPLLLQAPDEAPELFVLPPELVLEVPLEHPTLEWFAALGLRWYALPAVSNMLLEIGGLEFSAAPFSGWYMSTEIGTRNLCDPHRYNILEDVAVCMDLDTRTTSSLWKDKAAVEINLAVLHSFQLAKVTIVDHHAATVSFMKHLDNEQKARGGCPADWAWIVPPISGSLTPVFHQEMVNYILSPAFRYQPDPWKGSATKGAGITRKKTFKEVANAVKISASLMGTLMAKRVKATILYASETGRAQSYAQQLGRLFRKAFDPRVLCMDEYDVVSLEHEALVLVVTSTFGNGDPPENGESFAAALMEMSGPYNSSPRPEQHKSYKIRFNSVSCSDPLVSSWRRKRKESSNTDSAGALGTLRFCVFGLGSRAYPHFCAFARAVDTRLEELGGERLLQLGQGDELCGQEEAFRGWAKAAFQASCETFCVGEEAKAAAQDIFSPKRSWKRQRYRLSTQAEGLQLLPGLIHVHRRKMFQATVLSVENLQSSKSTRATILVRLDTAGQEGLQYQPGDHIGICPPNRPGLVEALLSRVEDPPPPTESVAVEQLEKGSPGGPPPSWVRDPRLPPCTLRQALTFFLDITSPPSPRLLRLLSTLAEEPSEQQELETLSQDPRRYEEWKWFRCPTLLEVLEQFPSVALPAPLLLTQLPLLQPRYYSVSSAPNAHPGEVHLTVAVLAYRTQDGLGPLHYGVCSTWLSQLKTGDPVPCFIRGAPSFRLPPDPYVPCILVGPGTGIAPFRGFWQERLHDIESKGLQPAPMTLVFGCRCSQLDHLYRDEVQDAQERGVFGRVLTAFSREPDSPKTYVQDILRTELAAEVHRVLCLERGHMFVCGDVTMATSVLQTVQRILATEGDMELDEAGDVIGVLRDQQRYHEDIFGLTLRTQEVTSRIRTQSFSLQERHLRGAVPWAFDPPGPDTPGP
T2 sequence (P29476 whole entry): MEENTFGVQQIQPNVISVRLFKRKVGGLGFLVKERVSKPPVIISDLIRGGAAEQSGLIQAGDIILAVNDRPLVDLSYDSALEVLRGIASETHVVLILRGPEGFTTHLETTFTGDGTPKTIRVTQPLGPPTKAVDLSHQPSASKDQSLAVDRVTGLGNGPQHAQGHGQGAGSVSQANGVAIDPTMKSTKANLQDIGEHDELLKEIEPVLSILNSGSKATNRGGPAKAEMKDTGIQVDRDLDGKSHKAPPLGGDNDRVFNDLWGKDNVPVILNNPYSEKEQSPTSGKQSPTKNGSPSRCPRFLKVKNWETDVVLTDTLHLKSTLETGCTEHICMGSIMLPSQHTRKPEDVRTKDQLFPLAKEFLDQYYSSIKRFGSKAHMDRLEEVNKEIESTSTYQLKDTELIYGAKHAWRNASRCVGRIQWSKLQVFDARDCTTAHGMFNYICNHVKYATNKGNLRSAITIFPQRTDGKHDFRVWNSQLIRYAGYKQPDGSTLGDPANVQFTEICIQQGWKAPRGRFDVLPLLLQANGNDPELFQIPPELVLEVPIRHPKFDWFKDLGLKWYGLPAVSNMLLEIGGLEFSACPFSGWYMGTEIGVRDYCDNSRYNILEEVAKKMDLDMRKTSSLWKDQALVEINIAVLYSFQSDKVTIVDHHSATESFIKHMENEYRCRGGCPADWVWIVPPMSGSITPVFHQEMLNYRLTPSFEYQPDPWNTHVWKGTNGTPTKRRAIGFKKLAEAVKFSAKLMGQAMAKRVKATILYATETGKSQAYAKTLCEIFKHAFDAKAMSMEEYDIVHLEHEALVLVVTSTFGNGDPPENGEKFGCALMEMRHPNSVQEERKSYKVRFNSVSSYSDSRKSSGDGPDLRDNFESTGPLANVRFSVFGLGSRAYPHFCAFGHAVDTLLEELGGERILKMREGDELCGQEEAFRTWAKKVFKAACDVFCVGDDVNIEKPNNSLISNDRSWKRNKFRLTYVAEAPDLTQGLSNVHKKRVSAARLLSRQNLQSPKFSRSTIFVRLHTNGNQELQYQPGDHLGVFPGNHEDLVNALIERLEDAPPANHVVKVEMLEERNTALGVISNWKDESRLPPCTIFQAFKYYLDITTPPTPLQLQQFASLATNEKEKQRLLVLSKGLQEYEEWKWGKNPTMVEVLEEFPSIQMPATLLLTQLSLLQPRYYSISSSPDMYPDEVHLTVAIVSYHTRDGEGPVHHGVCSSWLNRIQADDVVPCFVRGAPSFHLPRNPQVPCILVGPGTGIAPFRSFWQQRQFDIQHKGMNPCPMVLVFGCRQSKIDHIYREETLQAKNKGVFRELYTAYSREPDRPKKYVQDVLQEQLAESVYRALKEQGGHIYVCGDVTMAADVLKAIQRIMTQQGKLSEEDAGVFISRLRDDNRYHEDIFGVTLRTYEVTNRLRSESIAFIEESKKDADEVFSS
T3 sequence (Q06518 whole entry): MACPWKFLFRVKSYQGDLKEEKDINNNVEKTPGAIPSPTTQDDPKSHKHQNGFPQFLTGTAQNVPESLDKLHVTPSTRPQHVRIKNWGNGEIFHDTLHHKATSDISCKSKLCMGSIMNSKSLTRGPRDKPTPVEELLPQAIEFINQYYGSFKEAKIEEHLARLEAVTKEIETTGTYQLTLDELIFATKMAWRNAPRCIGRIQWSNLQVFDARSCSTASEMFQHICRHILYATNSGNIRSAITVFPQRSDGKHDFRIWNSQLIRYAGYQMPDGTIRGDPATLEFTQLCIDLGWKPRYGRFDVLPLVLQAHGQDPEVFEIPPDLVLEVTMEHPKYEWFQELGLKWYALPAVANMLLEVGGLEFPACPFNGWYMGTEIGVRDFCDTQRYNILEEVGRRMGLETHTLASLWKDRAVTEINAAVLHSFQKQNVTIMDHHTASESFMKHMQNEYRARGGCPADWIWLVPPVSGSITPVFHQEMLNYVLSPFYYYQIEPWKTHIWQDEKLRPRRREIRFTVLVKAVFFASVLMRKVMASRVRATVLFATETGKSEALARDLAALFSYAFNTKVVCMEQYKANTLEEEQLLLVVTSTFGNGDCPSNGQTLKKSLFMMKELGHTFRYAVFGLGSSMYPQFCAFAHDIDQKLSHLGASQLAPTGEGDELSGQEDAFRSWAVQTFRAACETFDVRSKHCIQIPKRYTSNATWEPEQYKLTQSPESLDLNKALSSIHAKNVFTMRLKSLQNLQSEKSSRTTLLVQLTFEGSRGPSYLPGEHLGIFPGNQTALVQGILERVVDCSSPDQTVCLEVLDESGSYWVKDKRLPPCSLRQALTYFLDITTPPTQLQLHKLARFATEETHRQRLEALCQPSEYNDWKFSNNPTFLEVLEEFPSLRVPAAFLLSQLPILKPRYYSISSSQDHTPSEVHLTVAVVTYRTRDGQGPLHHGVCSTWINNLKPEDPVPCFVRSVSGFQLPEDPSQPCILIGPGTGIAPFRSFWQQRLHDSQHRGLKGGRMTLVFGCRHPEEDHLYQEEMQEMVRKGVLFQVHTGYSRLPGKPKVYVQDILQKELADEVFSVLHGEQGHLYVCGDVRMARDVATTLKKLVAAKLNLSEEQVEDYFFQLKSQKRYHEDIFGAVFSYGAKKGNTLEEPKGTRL

| IC50 (iNOS [1]; [6]) [µM] | SMILES | IC50 (E-cNOS; [3]) [µM] | IC50 (N-cNOS) [µM] | Ratio of I50 values E-cNOS/N-cNOS (N-cNOS; [4]) | Ratio of I50 values iNOS/N-cNOS (N-cNOS; [5]) | other results |
| --- | --- | --- | --- | --- | --- | --- |
| 4.5 | CCCSC(=N)NCCC[C@H](N)C(=O)O [Example 12, δ-(S-(n-propyl)isothioureido)-L-norvaline] | 12.5 | 1.34 | 9.3 | 3.4 | – |
| 12 | C=CCNC(=N)NCCC[C@H](N)C(=O)O [L-ALA, N^G -allyl-L-arginine, reference compound] | – | – | 15.2 | 12.1 | – |
| 0.458 ± 0.0858 | CC(=N)NCCC[C@H](N)C(=O)O [L-NIO, N^G -iminoethyl-ornithine, reference compound] | – | – | – | – | – |
| – | COC(=O)[C@@H](N)CCCNC(=N)N[N+](=O)[O-] [L-NAME, N^G -nitro-L-arginine methyl ester, reference compound] | – | – | – | – | IC50 (iNOS [1]; [7]): 13.5 µM |
| – | N=C(NCCC[C@H](N)C(=O)O)NC1CC1 [L-CPA, N^G -cyclopropyl-L-arginine, reference compound] | 1.48 | – | – | – | IC50 (iNOS [1]; [7]): 7.15 µM |
| – | CCSC(=N)NCCC[C@H](N)C(=O)O [Example 2, δ-(S-ethylisothioureido)-L-norvaline] | – | – | – | – | E-cNOS inhibitory effect (in words) (E-cNOS): weak E-cNOS inhibitory effect; IC50 (E-cNOS): 0.492 ± 0.315 µM; N-cNOS inhibitory effect (in words) (N-cNOS; compared with existing NOS inhibitors): stronger N-cNOS inhibitory effect than the existing NOS inhibitors; also recorded: strong brain N-cNOS inhibitory effect; IC50 (iNOS [1]; [7]): 6.76 µM |
| 6.93 | O=[N+]([O-])c1cccc2cn[nH]c12 [Example 7-NI, 7-nitroindazole, reference compound] | – | – | – | – | – |
| 5.41 | N[C@@H](CCCNC1=NCCS1)C(=O)O [Example 8, δ-(2,3-dehydrothiazolin-2-yl)amino-L-norvaline dihydrochloride] | 3.32 | 0.564 ± 0.284 | 5.9 | 9.6 | – |
| – | N=C(N)NN [AG, aminoguanidine, reference compound] | – | – | – | 1.3 | Ratio of I50 values E-cNOS/N-cNOS (N-cNOS): > 4.9; IC50 (iNOS [1]): 27.2 µM; selectivity for iNOS vs E-cNOS (in words) (iNOS [2]; Griffith et al. 1993): selectivity for iNOS in comparison with the E-cNOS inhibiting action; inhibiting potency and selectivity for iNOS (in words) (iNOS [2]; as a therapeutic against hypotension in sepsis): insufficient to warrant its use as a therapeutic effective against hypotension in sepsis |

| SMILES | IC50 (iNOS [1]; [6]) [µM] | IC50 (E-cNOS; [3]) [µM] | IC50 (N-cNOS) [µM] | Ratio of I50 values E-cNOS/N-cNOS (N-cNOS; [4]) | Ratio of I50 values iNOS/N-cNOS (N-cNOS; [5]) | other results |
| --- | --- | --- | --- | --- | --- | --- |
| Cl.Cl.N=C(NCCC[C@H](N)C(=O)O)SCCF [Example 4, δ-(S-(2-fluoroethyl)-isothioureido)-L-norvaline dihydrochloride] | 0.501 | 1.31 | 0.0105 ± 0.0008 | 124.9 | 47.7 | E-cNOS inhibitory effect (in words) (E-cNOS): weak E-cNOS inhibitory effect; selectivity for N-cNOS or E-cNOS (in words) (N-cNOS; N-cNOS vs E-cNOS, compared with existing NOS inhibitors, dihydrochloride): more selective inhibitory effect on N-cNOS compared with the existing NOS inhibitors; also recorded: outstandingly high selective inhibitory effect on brain N-cNOS; N-cNOS inhibitory effect (in words) (N-cNOS; [8]): stronger N-cNOS inhibitory effect than the existing NOS inhibitors; also recorded: strong brain N-cNOS inhibitory effect; N-cNOS selective inhibitory effect (in words) (N-cNOS; over existing NOS inhibitors): by far superior N-cNOS selective inhibitory effect over the existing NOS inhibitors |
| C=CCSC(=N)NCCC[C@H](N)C(=O)O.Cl.Cl [Example 6, δ-(S-(2-propenyl)isothioureido)-L-norvaline dihydrochloride] | 0.298 | 1.18 | 0.113 ± 0.006 | 10.4 | 2.6 | selectivity for N-cNOS or iNOS (in words) (N-cNOS; N-cNOS vs iNOS, compared with existing NOS inhibitors, dihydrochloride): extremely high selective inhibitory effect on iNOS; iNOS inhibitory effect (in words) (iNOS [1]; [8]): by far stronger iNOS inhibitory effect than the existing NOS inhibitors; also recorded: strong iNOS inhibitory effect; iNOS selective inhibitory effect (in words) (iNOS [1]; over existing NOS inhibitors): by far superior iNOS selective inhibitory effect over the existing NOS inhibitors |
| CSC(=N)NCCCC[C@H](N)C(=O)O.Cl.Cl [Example 10, ε-(S-methylisothioureido)-L-norleucine dihydrochloride] | 10.4 | 6.41 | 1.26 | 5.1 | 8.3 | – |
